Test results: patent US3931262A, “Hydrophilic and difficultly volatile biocidal triorganotin compounds” (priority 1972, dated 1976)

Assays:
[1] = Solubility in water; type: physicochemical; details: for Solubility in water (in words): Table 1 and text
Excerpt: Solubility properties of tributyltin derivatives [formula]

[2] = system: Salmonella cholerae-suis VBIB; type: cell-based
[3] = system: Candida albicans CBS; assay: Microbiological test; type: cell-based
Excerpt: (§1) In the test for microbiocidal activity the compounds listed hereinbelow yielded the values indicated in the following Table: No. Compound __________________________________________________________________________ 1 (n--C4 H9)3 Sn--S--CH2 --CH2 --COO.(CH 2 --CH2 --O--n H(n~9) 2 (C6 H5)3 Sn--S--(CH2)3 --SO3.Na CH3 .vertline. 3 --Sn--S--CH2 --CH2 --COO--(CH2 --CH2 --O)n.H(n ~9) .vertline. CH3 4 (n--C4 H9)3 Sn--S--CH2 --COO.H.N(CH2 CH2 OH)3 5 (n--C4 H9)3 Sn--S--(CH2)2 --COO.H.N(CH2 CH2 OH)3 6 (n--C4 H9)3 Sn--S--CH2 --CO.N(CH2 CH2 OH)2 __________________________________________________________________________

[4] = system: Salmonella gallinarum VBIB; assay: Microbiological test; type: cell-based
Excerpt: as §1

[5] = system: Aspergillus niger ATCC 6275; assay: Microbiological test; type: cell-based
Excerpt: as §1

[6] = system: Fusarium oxysporum CBS; assay: Microbiological test; type: cell-based
Excerpt: as §1

[7] = system: Polystictus versicolor EMPA61; assay: Microbiological test; type: cell-based
Excerpt: as §1

[8] = system: Aspergillus flavus CBS 12662; assay: Microbiological test; type: cell-based
Excerpt: as §1

[9] = system: Sarcina ureae SMB 81; assay: Microbiological test; type: cell-based
Excerpt: as §1

[10] = system: Mycobacterium phlei CITM 61; assay: Microbiological test; type: cell-based
Excerpt: as §1

[11] = system: Trichophyton gypseum CBS; assay: Microbiological test; type: cell-based
Excerpt: as §1

[12] = system: Alternaria tenuis CBS 10426; assay: Microbiological test; type: cell-based
Excerpt: as §1

[13] = system: Arizona paracolon 7:1.7,8; assay: Microbiological test; type: cell-based
Excerpt: as §1

[14] = system: Bacillus subtilis NCTC 6460; assay: Microbiological test; type: cell-based
Excerpt: as §1

[15] = system: Penicillium funiculosum CEB 329631; assay: Microbiological test; type: cell-based
Excerpt: as §1

[16] = system: Escherichia coli NCTC 8195; assay: Microbiological test; type: cell-based
Excerpt: as §1

[17] = system: Escherichia coli RP 45410; assay: Microbiological test; type: cell-based
Excerpt: as §1

[18] = system: Poria vaporia CBS; assay: Microbiological test; type: cell-based
Excerpt: as §1

[19] = system: Pilz schwarzlich DAP; assay: Microbiological test; type: cell-based
Excerpt: as §1

[20] = system: Hefe rot DAP; assay: Microbiological test; type: cell-based
Excerpt: as §1

[21] = system: Staphylococcus aureus SG 511; assay: Microbiological test; type: cell-based
Excerpt: as §1

[22] = system: Fusarium spec. DAP; assay: Microbiological test; type: cell-based
Excerpt: as §1

[23] = system: Stachybotrys atra CBS 32465; assay: Microbiological test; type: cell-based
Excerpt: as §1

[24] = system: Trichoderma viride CEB 3334.2; assay: Microbiological test; type: cell-based
Excerpt: as §1

[25] = system: Lenzites abietina CBS; assay: Microbiological test; type: cell-based
Excerpt: as §1

[26] = system: Penicillium expansum SMC 36; assay: Microbiological test; type: cell-based
Excerpt: as §1

[27] = system: Corynebacterium diphteroides FUR; assay: Microbiological test; type: cell-based
Excerpt: as §1

[28] = system: Pasteurella multocida K753; assay: Microbiological test; type: cell-based
Excerpt: as §1

[29] = system: Pullularia pullulans CBS 10767; assay: Microbiological test; type: cell-based
Excerpt: as §1

[30] = system: Pseudomonas fluorescens NCTC 4755; assay: Microbiological test; type: cell-based
Excerpt: as §1

[31] = system: Streptococcus agalactiae M100; assay: Microbiological test; type: cell-based
Excerpt: as §1

[32] = system: Paecilomyces varioti CBS; assay: Microbiological test; type: cell-based
Excerpt: as §1

[33] = system: Staphylococcus aureus SG 511 M6; assay: Microbiological test; type: cell-based
Excerpt: as §1

[34] = system: Coniphora cerebella CBS; assay: Microbiological test; type: cell-based
Excerpt: as §1

[35] = system: Salmonella pullorum VBIZ; assay: Microbiological test; type: cell-based
Excerpt: as §1

[36] = system: Chaetomium globosum CBS 14851; assay: Microbiological test; type: cell-based
Excerpt: as §1

[37] = system: Hefe DAP; assay: Microbiological test; type: cell-based
Excerpt: as §1

[38] = system: Streptococcus faecalis NCTC 8619; assay: Microbiological test; type: cell-based
Excerpt: as §1

## CCC[CH2][Sn]([CH2]CCC)([CH2]CCC)[S]CC(O)CO (stereo not shown) [--CH2 --CH--CH2]
[1]
  Solubility in water (in words): satisfactory

## O=S(=O)([O-])CCC[S][Sn]([c]1ccccc1)([c]1ccccc1)[c]1ccccc1.[Na+] [Compound 2, sodium S-triphenyl tin-γ-mercaptopropanesulphonate]
[2]
  Activity range: > 300 ppm
[3]
  Activity range: 30 ppm
[4]
  Activity range: > 300 ppm
[5]
  Activity range: 30 ppm
[6]
  Activity range: 10 ppm
[7]
  Activity range: 30 ppm
[8]
  Activity range: 30 ppm
[9]
  Activity range: 3 ppm
[10]
  Activity range: 3 ppm
[11]
  Activity range: 30 ppm
[12]
  Activity range: 10 ppm
[13]
  Activity range: > 300 ppm
[14]
  Activity range: 3 ppm
[15]
  Activity range: 100 ppm
[16]
  Activity range: 30 ppm
[17]
  Activity range: 10 ppm
[18]
  Activity range: 3 ppm
[19]
  Activity range: 30 ppm
[20]
  Activity range: 10 ppm
[21]
  Activity range: 3 ppm
[22]
  Activity range: 30 ppm
[23]
  Activity range: 10 ppm
[24]
  Activity range: 10 ppm
[25]
  Activity range: 100 ppm
[26]
  Activity range: 30 ppm
[27]
  Activity range: 3 ppm
[28]
  Activity range: > 300 ppm
[29]
  Activity range: 3 ppm
[30]
  Activity range: > 300 ppm
[31]
  Activity range: 3 ppm
[32]
  Activity range: 10 ppm
[33]
  Activity range: 10 ppm
[34]
  Activity range: 30 ppm
[35]
  Activity range: > 300 ppm
[36]
  Activity range: 10 ppm
[37]
  Activity range: 10 ppm
[38]
  Activity range: 10 ppm

## CCC[CH2][Sn]([CH2]CCC)([CH2]CCC)[S]CC(=O)[O-].OCC[NH+](CCO)CCO [Compound 4, triethylammonium S-tri-n-butyl tin-thioglycolate]
[2]
  Activity range: > 300 ppm
[3]
  Activity range: 10 ppm
[5]
  Activity range: 10 ppm
[6]
  Activity range: 10 ppm
[7]
  Activity range: 100 ppm
[8]
  Activity range: 10 ppm
[9]
  Activity range: 30 ppm
[10]
  Activity range: 30 ppm
[11]
  Activity range: 10 ppm
[12]
  Activity range: 10 ppm
[13]
  Activity range: > 300 ppm
[14]
  Activity range: 30 ppm
[15]
  Activity range: 30 ppm
[16]
  Activity range: 30 ppm
[17]
  Activity range: 30 ppm
[18]
  Activity range: 10 ppm
[21]
  Activity range: 30 ppm
[23]
  Activity range: 10 ppm
[24]
  Activity range: 10 ppm
[25]
  Activity range: 10 ppm
[26]
  Activity range: 10 ppm
[27]
  Activity range: 30 ppm
[28]
  Activity range: 30 ppm
[29]
  Activity range: 10 ppm
[30]
  Activity range: > 300 ppm
[31]
  Activity range: 30 ppm
[32]
  Activity range: 10 ppm
[33]
  Activity range: 30 ppm
[34]
  Activity range: 10 ppm
[35]
  Activity range: > 300 ppm
[36]
  Activity range: 10 ppm
[38]
  Activity range: 30 ppm

## CCC[CH2][Sn]([CH2]CCC)([CH2]CCC)[S]CCC(=O)[O-].OCC[NH+](CCO)CCO [Compound 5, triethanolammonium S-tri-n-butyl tin-β-mercaptopropionate]
[2]
  Activity range: > 300 ppm
[3]
  Activity range: 10 ppm
[5]
  Activity range: 10 ppm
[6]
  Activity range: 10 ppm
[7]
  Activity range: 30 ppm
[8]
  Activity range: 10 ppm
[9]
  Activity range: 30 ppm
[10]
  Activity range: 10 ppm
[11]
  Activity range: 10 ppm
[12]
  Activity range: ≤ 3 ppm
[13]
  Activity range: > 300 ppm
[14]
  Activity range: 10 ppm
[15]
  Activity range: 10 ppm
[16]
  Activity range: > 300 ppm
[17]
  Activity range: > 300 ppm
[18]
  Activity range: 10 ppm
[21]
  Activity range: 10 ppm
[23]
  Activity range: ≤ 3 ppm
[24]
  Activity range: 10 ppm
[25]
  Activity range: 10 ppm
[26]
  Activity range: 10 ppm
[27]
  Activity range: 10 ppm
[28]
  Activity range: 30 ppm
[29]
  Activity range: 10 ppm
[30]
  Activity range: 30 ppm
[31]
  Activity range: 30 ppm
[32]
  Activity range: ≤ 3 ppm
[33]
  Activity range: 30 ppm
[34]
  Activity range: 10 ppm
[35]
  Activity range: > 300 ppm
[36]
  Activity range: ≤ 3 ppm
[38]
  Activity range: 100 ppm

## CCC[CH2][Sn]([CH2]CCC)([CH2]CCC)[S]CC(=O)N(CCO)CCO [Compound 6, S-tri-n-butyl tin-thioglycolic acid diethanolamide]
[2]
  Activity range: > 300 ppm
[3]
  Activity range: 10 ppm
[5]
  Activity range: 10 ppm
[6]
  Activity range: 10 ppm
[7]
  Activity range: 30 ppm
[8]
  Activity range: 10 ppm
[9]
  Activity range: ≤ 1 ppm
[10]
  Activity range: ≤ 1 ppm
[11]
  Activity range: 10 ppm
[12]
  Activity range: ≤ 3 ppm
[13]
  Activity range: > 300 ppm
[14]
  Activity range: ≤ 1 ppm
[15]
  Activity range: 30 ppm
[16]
  Activity range: 30 ppm
[17]
  Activity range: 30 ppm
[18]
  Activity range: 10 ppm
[21]
  Activity range: 30 ppm
[23]
  Activity range: ≤ 3 ppm
[24]
  Activity range: 10 ppm
[25]
  Activity range: 10 ppm
[26]
  Activity range: 10 ppm
[27]
  Activity range: ≤ 1 ppm
[28]
  Activity range: 30 ppm
[29]
  Activity range: 10 ppm
[30]
  Activity range: 30 ppm
[31]
  Activity range: 3 ppm
[32]
  Activity range: ≤ 3 ppm
[33]
  Activity range: 3 ppm
[34]
  Activity range: 10 ppm
[35]
  Activity range: > 300 ppm
[36]
  Activity range: ≤ 3 ppm
[38]
  Activity range: 30 ppm

## CCC[CH2][Sn]([CH2]CCC)([CH2]CCC)[O][Sn]([CH2]CCC)([CH2]CCC)[CH2]CCC [TBTO, bis-(tri-n-butyltin)-oxide]
[1]; Table 1, comparison
  Solubility in water: 20 ppm
[1]
  Solubility in water (in words): poor
